How the values were obtained:
Test in all cases: -log10 GI50 (growth inhibition 50%) (-log10(M)); higher = more potent growth inhibition
[1] = test system: LY2
Summary of the method: (§1)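 Breast cancer cell lines were treated with each compound for 72 hours at nine doses in 1:5 serial dilution, in triplicate, and luminescence was read against a time-zero plate. A Gompertz curve was fitted to the dose-response data by nonlinear least squares to obtain GI50, the molar concentration giving the set level of growth inhibition, which is reported as its negative logarithm. The logarithm is base 10, and values equal to the top dose carry a < qualifier.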

[2] = test system: ZR75B
Summary of the method: as §1

[3] = test system: SUM1315MO2
Summary of the method: as §1

[4] = test system: MDAMB415
Summary of the method: as §1

[5] = test system: HCC1187
Summary of the method: as §1

[6] = test system: BT474
Summary of the method: as §1

[7] = test system: HS578T
Summary of the method: as §1

[8] = test system: MDAMB361
Summary of the method: as §1

[9] = test system: HCC1143
Summary of the method: as §1

[10] = test system: MCF7
Summary of the method: as §1

[11] = test system: HCC3153
Summary of the method: as §1

[12] = test system: BT549
Summary of the method: as §1

[13] = test system: HCC1569
Summary of the method: as §1

[14] = test system: HCC1806
Summary of the method: as §1

[15] = test system: HCC1395
Summary of the method: as §1

[16] = test system: SUM225CWN
Summary of the method: as §1

[17] = test system: HCC2185
Summary of the method: as §1

[18] = test system: SUM149PT
Summary of the method: as §1

[19] = test system: MCF10F
Summary of the method: as §1

[20] = test system: 600MPE
Summary of the method: as §1

| Compound | -log10 GI50 [1] | -log10 GI50 [2] | -log10 GI50 [3] | -log10 GI50 [4] | -log10 GI50 [5] | -log10 GI50 [6] | -log10 GI50 [7] | -log10 GI50 [8] | -log10 GI50 [9] | -log10 GI50 [10] | -log10 GI50 [11] | -log10 GI50 [12] | -log10 GI50 [13] | -log10 GI50 [14] | -log10 GI50 [15] | -log10 GI50 [16] | -log10 GI50 [17] | -log10 GI50 [18] | -log10 GI50 [19] | -log10 GI50 [20] |
| --- | --- | --- | --- | --- | --- | --- | --- | --- | --- | --- | --- | --- | --- | --- | --- | --- | --- | --- | --- | --- |
| CC(=O)NCC(=O)N1[C@@H]2CC[C@H]1c1ccc(Nc3ncc(C(F)(F)F)c(NC4CCC4)n3)cc12 | 5.5 | 5.94 | 6.12 | 5.18 | 7.1 | 5.22 | 6.05 | 5.23 | 5.82 | 5.71 | 5.38 | 5.47 | 6.07 | 5.55 | 5.96 | 5.05 | 4.98 | 6.08 | 6.28 | 6.03 |
| CCC[C@H](N[C@H]1CCc2cc(F)cc(F)c2C1)C(=O)Nc1cn(C(C)(C)CNCC(C)(C)C)cn1 | 4.68 | < 4.18 | 4.65 | 4.9 | 5.48 | 4.37 | 4.51 | 4.41 | < 4.18 | 4.49 | 4.37 | < 4.18 | 4.27 | < 4.18 | < 4.18 | 4.84 | 4.99 | 6.88 | < 4.18 | < 4.18 |
| CNC(=O)c1c(F)cccc1Nc1nc(Nc2cc3c(cc2OC)CCN3C(=O)CN(C)C)nc2[nH]ccc12 | 6.27 | 5.01 | 5.1 | 5.32 | 5.65 | 5.08 | 4.91 | 4.84 | 5.56 | 6 | 5.39 | 5.21 | 5.12 | 4.09 | 5.33 | 4.9 | 5.39 | 5.41 | 6.31 | 6.49 |
| COc1ccc(-c2cc3c(C)nc(N)nc3n([C@H]3CC[C@H](OCCO)CC3)c2=O)cn1 | 7.04 | 7.28 | 7.06 | 7.08 | 8.01 | 6.91 | 5.26 | 7.36 | 6.86 | 7.39 | 4.87 | 6.38 | 6.78 | 6.43 | 7.02 | 6.79 | 7.12 | 7.08 | 6.8 | 7.32 |
| COc1cccc(-c2cc(=O)c3ccccc3o2)c1N | < 4.3 | 4.59 | < 4.3 | 4.6 | 5.39 | 4.58 | < 4.3 | 4.3 | < 4 | < 4.3 | 4.1 | 4.36 | < 4.3 | < 4.3 | < 4 | 4.64 | 5.06 | 4.66 | < 4.3 | < 4.3 |
| COc1ncc(-c2ccc3nccc(-c4ccnnc4)c3c2)cc1NS(=O)(=O)c1ccc(F)cc1F | 7.94 | 8.31 | 8.02 | 5.86 | 8.3 | 8.36 | 7.13 | 8.82 | 7.43 | 8.14 | 7.38 | 7.32 | 7.75 | 7.54 | 7.31 | 8.79 | 8.04 | 7.64 | 8.67 | 8.22 |
| O=C1C(Cl)=C(NCCN2CCOCC2)C(=O)c2ncccc21 | 6.27 | 5.26 | 5.96 | 5.59 | 5.73 | 5.56 | 5.7 | 5.27 | 5.7 | 5.43 | 5.64 | 5.8 | 5.36 | 5.61 | 6.15 | 5.64 | 5.97 | 5.69 | 5.6 | 5.34 |
| O=C1NC(=O)/C(=C/c2ccc(-c3ccc(F)cc3O)o2)S1 | 4.51 | 5.04 | 4.92 | < 4.48 | 5.77 | 5.41 | 5.06 | 4.78 | < 4.18 | 4.8 | < 4.18 | < 4.48 | 4.54 | 5.25 | 4.22 | 5.47 | 4.91 | 5 | < 4.48 | 5.19 |
| Cn1cnc2c(F)c(Nc3ccc(Br)cc3Cl)c(C(=O)NOCCO)cc21 [AZD6244] | < 4.3 | < 4.3 | 5.57 | 4.96 | < 4.3 | < 4.3 | 4.75 | < 4.3 | < 4.3 | < 4.3 | < 4.3 | < 4.3 | < 4.3 | < 4.3 | 4.42 | < 4.3 | < 4.3 | 6.32 | 5.62 | 6.24 |
| O=c1[nH]c2ccccc2n1C1CCN(Cc2ccc(-c3[nH]c4cc5ncnc5cc4nc3-c3ccccc3)cc2)CC1 [Akt inhibitor VIII] | 5.85 | 5.93 | 5.34 | 5.7 | 5.43 | 6.08 | 4.89 | 6.06 | 4.87 | 5.77 | 5.01 | 5.08 | 5.07 | 5.05 | 5.25 | 6.16 | 5.86 | 4.96 | 5.42 | 5.15 |
| Cn1c(=O)n(-c2ccc(C(C)(C)C#N)cc2)c2c3cc(-c4cnc5ccccc5c4)ccc3ncc21 [BEZ235] | 6.8 | 6.85 | 6.49 | 6.79 | < 4.48 | 6.65 | < 4.48 | 6.68 | < 4.48 | < 4.48 | 6.19 | < 4.48 | 6.33 | < 4.48 | < 4.48 | 6.68 | 7.24 | 6.5 | < 4.48 | < 4.48 |
| CN(C)C/C=C/C(=O)Nc1cc2c(Nc3ccc(F)c(Cl)c3)ncnc2cc1O[C@H]1CCOC1 [BIBW2992] | 5.65 | 5.52 | 6.79 | 5.86 |  | 8.23 |  | 8.21 | 5.86 |  |  | 5.87 | 6.56 | 6.27 | 5.93 | 8.03 | 5.86 | 7.13 | 7.01 | 5.63 |
| O=c1cc(-c2ccccc2)oc2cc(O)c(O)c(O)c12 [Baicalein] | 4.19 | 4.36 | 4.55 | < 3.78 | 4.94 | 4.3 | 4.32 | < 3.78 | 4.15 | 4.3 | 4.69 | 4.64 | 4.33 | 4.73 | 4.73 | 4.43 | 4.3 | 4.29 | < 3.78 | < 3.78 |
| CC(C)C[C@H](NC(=O)[C@H](Cc1ccccc1)NC(=O)c1cnccn1)B(O)O [Bortezomib] | 6.46 | 7.53 | 7.75 | 7.4 | 8.26 | 8.24 | 7.81 | 5.54 | 8.12 | 7.75 | 7.9 | 8.21 | 8.12 | 7.59 | 8.15 | 8 | 8.35 | 8 | 7.59 | 6.85 |
| COc1cc(Nc2c(C#N)cnc3cc(OCCCN4CCN(C)CC4)c(OC)cc23)c(Cl)cc1Cl [Bosutinib] | 5.66 | 5.15 | 6.12 | 5.73 | 5.5 | 5.71 | 5.8 | 5.9 | 5.31 | 5.59 | 5.18 | 5.95 | 5.76 | 5.69 | 5.93 | 5.81 | 5.3 | 6.13 | 5.75 | 5.27 |
| C#Cc1cccc(Nc2ncnc3cc(OCCOC)c(OCCOC)cc23)c1 [Erlotinib] | < 4.18 | < 4.18 | 5.03 | < 4.18 | 5.12 | 4.98 | < 4.18 | < 4.18 | 4.24 | < 4.18 | 4.51 | 4.39 | 4.78 | 5.37 | 4.53 | 4.89 | 4.71 | 5.7 | 6.54 | 4.3 |
| COc1cc([C@@H]2c3cc4c(cc3[C@@H](O[C@@H]3O[C@@H]5CO[C@@H](C)O[C@H]5[C@H](O)[C@H]3O)[C@H]3COC(=O)[C@H]23)OCO4)cc(OC)c1O [Etoposide] | < 3.48 | 6.06 | 6.61 | 4.56 | 6.21 | 4.63 | 5.22 | 4.85 | 5.29 | 5.13 | 5.57 | 5.89 | 4.2 | 5.51 | 5.53 | 4.99 | 5.11 | 5.58 | 6.13 | 5.26 |
| CSCC[C@H](NC(=O)[C@H](Cc1ccccc1)NC[C@@H](NC[C@@H](N)CS)C(C)C)C(=O)O [FTase inhibitor I] | < 4.48 | < 4.48 | < 4.18 | < 4.18 | < 4.48 | < 4.18 | < 4.48 | < 4.18 | < 4.48 | < 4.48 | < 4.48 | < 4.18 | < 4.18 | < 4.48 | < 4.18 | 4.49 | < 4.48 | 4.76 | < 4.48 | < 4.48 |
| O=C1c2ccccc2-[n+]2ccc3c([nH]c4ccccc43)c21 [Fascaplysin] | 8.1 | 6.39 | 6.38 | 7.22 | 7.83 | 6.73 | 5.98 | 7.09 | 6.56 | 6.72 | 6.55 | 6.28 | 6.33 | 6.59 | 6.49 | 7.25 | 6.9 | 6.4 | 6.58 | 6.55 |
| O=c1[nH]c(=O)n([C@H]2C[C@H](O)[C@@H](CO)O2)cc1F [Floxuridine] | 5.63 | 5.16 | 3.18 | 4.5 | 3.81 | 3.37 | 3.52 | 3.4 | 4.08 | 3.77 | 3.11 | 3.57 | 3.38 | 4.02 | 3.51 | 3.53 | 3.2 | 4.12 | 4.34 | 5.81 |
| Cc1cncc2cccc(S(=O)(=O)N3CCCN(C(=O)CN)C[C@@H]3C)c12 [Glycyl H1152] | 6.28 | < 4.18 | 5.15 | 5.03 | 6.22 | < 4.18 | 5.82 | 4.65 | 5.05 | 4.67 | < 4.48 | 5.01 | 5.21 | < 4.18 | 5.05 | < 4.18 | 5.62 | 4.57 | < 4.18 | < 4.18 |
| CC(C(C)N1CC(=O)NC(=O)C1)N1CC(=O)NC(=O)C1 (stereo unspecified) [ICRF-193] | 5.97 | 6.6 | 6.35 | 5.39 | 6.1 | < 4.3 | 5.63 | 4.39 | < 4.3 | < 4.48 | < 4.48 | < 4.3 | < 4.3 | < 4.3 | 4.69 | < 4.48 | 5.71 | 5.59 | < 4.3 | < 4.3 |
| Cc1ccc(NC(=O)c2ccc(CN3CCN(C)CC3)cc2)cc1Nc1nccc(-c2cccnc2)n1 [Imatinib] | 4.65 | 4.63 | 4.63 | 4.64 | 4.6 | 4.52 | 4.1 | 4.57 | 4.53 | 4.82 | 4.52 | 4.45 | 4.75 | 5.15 | 4.77 | 4.9 | 4.82 | 4.67 | 4.71 | 4.62 |

From the supplement of paper PMC3937590
